Results on five compounds are retold here after article PMC12591170, “Glabridin‐Gold(I) Complex as a Novel Immunomodulatory Agent Targeting TrxR and MAPK Pathways for Synergistic Enhancement of Antitumor Immunity” (Advanced Science, 2025).

In data set [1] the test system is Hepa1-6 cells. Put plainly: MTT antiproliferative assay, Hepa1-6. The data set is classed as cell-based. The settings on record: Mus musculus, Hepa1-6; 72 h MTT assay, Mean ± SD. On the procedure: (§1) All cells were incubated at 37 °C by DMEM complete medium (containing 1% penicillin−streptomycin and 12% FBS) in 5% CO2 incubator. 2–5 × 10^3 cells were cultured in 96‐well plates and each well contained 100 µL complete medium. OXA was dissolved in water, and all other complexes were dissolved in DMF. After cells adhered in the wells, different concentrations of complexes were diluted in 100 µL complete medium and added in the wells. The final volume in the each well was 200 µL and the content of DMF was maximum 0.5%. After 72 h incubation, the antiproliferative activity was tested by MTT assay.
Background: Tetrazolium dyes change colour on reduction, which living cells bring about.

The subject of data set [2] is HepG2 cells. Put plainly: MTT antiproliferative assay, HepG2. The data set is classed as cell-based, human. Conditions: 72 h MTT assay, Mean ± SD. On the procedure:
as §1

For data set [3], the system named is 293T cells. Description: MTT assay, normal kidney cell line 293T. The settings on record: Homo sapiens, HEK-293T; 72 h MTT assay, Mean ± SD. The data set is classed as cell-based. On the procedure:
as §1

Data set [4] deals with PD-L1. Description: PD-L1 expression in HepG2 (western blot, immunofluorescence, flow cytometry). The data set is classed as cell-based, human. The settings on record: HepG2, 24 h. On the procedure:
(§2) HepG2 cells were incubated in 6 cm culture dishes and treated with different complexes. The treated cells were lysed with lysis buffer (RIPA:PMSF:phosphatase inhibitor:protease inhibitor = 100:1:1:1). The lysed cells were further broken by sonication, and proteins were isolated by centrifugation. The protein concentrations were detected by BCA assay. 10% SDS PAGE gel was usually applied to separate the different kDa of proteins, and more than 200 kDa of proteins were separated using 8% SDS PAGE gel. After seperation, proteins were transferred onto polyvinylidene difluoride (PVDF) membranes. The target proteins were labeled by various specific primary antibodies at 4 °C overnight. Then, the membranes were treated with anti‐rabbit or anti‐mouse secondary antibody for 2 h. Tris buffered saline with tween 20 (TBST) was applied to wash the membranes after each operation above. The target proteins’ bands were detected by the enhanced chemiluminescence (ECL) procedure.
5 × 10^4 HepG2 cells were treated with complexes in 24‐well plates for 24 h. Subsequently, cells were fixed with 4% paraformaldehyde. Various specific antibodies were added for incubation at 4 °C overnight after cells were permeabilized with Triton X‐100 (except for membrane proteins) and blocked with BSA. Then, the cells were incubated with fluorescently‐labeled secondary antibodies in darkness for 2 h. After that, DAPI was added to stain nuclear in darkness. PBS was applied for washing after each operation above (Tris buffered saline (TBS) was applied for washing if phosphorylated protein was analyzed). The cell images were captured by the fluorescence microscopy.
4 × 10^5 HepG2 cells were incubated in 6‐well plates, and complexes were added in the wells. The cells were collected after incubation, and the treated cells were labeled with probes or fluorescently‐labeled antibodies. A flow cytometer was applied to analyze the labeled cells.
Background: A western blot detects proteins with antibodies after separation by electrophoresis.

Data set [5] concerns immune cells in Hepa1-6 tumor and spleen tissue. Description: In vivo immune cell and marker analysis (flow cytometry, immunofluorescence, immunohistochemistry). More on the design: species or system C57BL/6 mice. Conditions: for DC maturation in spleen and tumor tissues / macrophage polarization in tumor: flow cytometry and immunofluorescence; for T lymphocyte infiltration in tumor: flow cytometry and immunohistochemistry; for MDSC infiltration in tumor / Treg infiltration in tumor (Foxp3): vs model group, 13 days.

Data set [6] deals with MAPK pathway (phosphorylated MEK1/2 and ERK1/2). Description: Western blot of MAPK pathway in HepG2. Conditions: HepG2, 24 h. The data set is classed as cell-based, human. On the procedure:
as §2

Data set [7] has as its system Hepa1-6 tumors. Description: In vivo antitumor assay, Hepa1-6 tumors. More on the design: species or system C57BL/6 mice. Conditions: after 13 days; 6d and OXA 5 mg kg^−1, GLA 10 mg kg^−1, i.p. every two days.
For data set [8], the system named is PD-L1. Put plainly: In vivo PD-L1 expression in tumor tissue. Conditions: western blot, 13 days of treatment. The arrangement: species or system C57BL/6 mice.
Data set [9] concerns MAPK pathway (phosphorylated MEK1/2 and ERK1/2). Description: In vivo MAPK pathway in tumor tissue. More on the design: species or system C57BL/6 mice. Conditions: western blot, day 13.
Data set [10] deals with phosphorylated Akt. Description: Western blot of phosphorylated Akt in HepG2. The data set is classed as cell-based, human. Conditions: HepG2, 24 h; GLA at 8 µM. On the procedure:
as §2

Data set [11] is described as follows: In vivo tolerability (body weight, survival, organ H&E). On the procedure:
All mice were 6–8 weeks old males and procured from Hangzhou Medical College, located in Hangzhou, China. […] 2 × 10^6 Hepa1‐6 cells in 100 µL DMEM were subcutaneously seeded in underarms of C57BL/6 mice. […] Meanwhile, the mice weights and tumor volume were recorded, and the calculation formula of tumor volume was Volume = Width^2 × Length/2. After 13 days, all mice were sacrificed for collection of tumors, hearts, livers, spleens, lungs and kidneys. Collagenase IV (1 mg mL^−1) and DNase I (1 µg mL^−1) were applied to digest a part of the tumor tissue into cell suspension, and lysis buffer was used to remove red blood cells. The prepared cells above were stained with antibodies (anti‐CD3e‐FITC, and anti‐CD8a‐PE; anti‐CD11c‐APC, anti‐CD80‐PE, and anti‐CD86‐FITC; anti‐CD45‐Percp, anti‐CD11b‐APC, and anti‐Ly‐6G/Ly‐6C(Gr‐1)‐FITC; anti‐CD11b‐APC, anti‐CD206‐PE, and CD86‐FITC). CD3^+CD8^+ T cells, CD80^+CD86^+ DCs, CD11b^+Gr‐1^+ MDSCs, CD206^−CD86^+ M1‐type macrophages and CD206^+CD86^− M2‐type macrophages were analyzed by flow cytometry. Then, another part of tumor tissues were fixed with 4% paraformaldehyde, embedded in paraffin, cut into slices and stained with antibodies for immunofluorescence and immunohistochemistry analysis. H&E stain assays were applied for all tissue samples.

On the set-up of data set [12]: method as in PMID 30146723. The settings on record: antitumor activity; cited from earlier work.
A short description of data set [13]: Metabolic stability in whole blood. Conditions: mouse.
A short description of data set [14]: Stability analysis by 1H NMR. The data set is classed as physicochemical. On the procedure:
5 mM of complex 6d was incubated with DMSO‐d6 or the mixed solution (DMSO‐d6 /D2O = 9:1) or the same mixed solution with 5 mM of GSH for different times (0 – 72 h), and the ^1H NMR spectra were acquired. The stability of AF was determined by the same method.

The test system of data set [15] is HIF-1α. Description: Western blot of HIF-1α in HepG2. The data set is classed as cell-based, human. The settings on record: HepG2, 24 h. On the procedure: as §2

Structures are written as SMILES.

Usually IC50 stands for the concentration that gives 50% inhibition. High values mean a need for much substance, low ones inhibition by little substance. `CC1(C)C=Cc2c(ccc3c2OC[C@@H](c2ccc(OCCCCCBr)cc2OCCCCCBr)C3)O1` [3b]: the half-maximal inhibitory concentration (IC50) is more than 20 µM in [1]; more than 20 µM in data set [2] (Homo sapiens, HepG2); more than 20 µM in [3].
As for `O=C1[O][Pt]2([NH][C@@H]3CCCC[C@H]3[NH]2)[O]C1=O` [OXA, oxaliplatin], the “PD-L1 expression (western blot)” value in [4] is “did not affect”. In data set [5], the “DC maturation in spleen and tumor tissues” value is reported as “induced DC maturation”; the “macrophage polarization in tumor” value is “promoted M2‐type polarization”; the “T lymphocyte infiltration in tumor” value is recorded as “promoted T lymphocyte infiltration”; the “MDSC infiltration in tumor” value is listed as “higher level of MDSC infiltration”. Besides, in data set [5], the “Treg infiltration in tumor (Foxp3)” value is “higher number of infiltrated Tregs”. For the same compound, in data set [5] (immunofluorescence), the “Arg-1 expression in tumor tissue” value is given as “promoted the expression” and the “CRT exposure in tumor tissue” value is “promoted CRT exposure”. In addition, in data set [5] (immunofluorescence, OXA vs model group, 6d vs OXA group), the “GzmB expression in tumor tissue” value is reported as “did not increase obviously”. The “phosphorylation of MEK1/2 and ERK1/2 (western blot)” value in data set [6] is “no effect”. For the same compound, the “tumor growth vs model group” value in [7] was “significant tumor growth inhibition”. In [8], the “PD-L1 expression in tumor tissue” value was “upregulated”. This compound also returned an IC50 in [2] of 4.08 ± 0.97 µM. In addition, in [9], the “MAPK pathway activation (phosphorylation of MEK1/2 and ERK1/2) in tumor tissue” value is reported as “promoted the phosphorylation”.
Consider `CC1(C)C=Cc2c(ccc3c2OC[C@@H](c2ccc(O)cc2O)C3)O1` [GLA, glabridin], for which the “Akt phosphorylation (western blot)” value in data set [10] is reported as “did not significantly affect Akt phosphorylation”. Further, in data set [11] (6d and OXA 5 mg kg^−1, GLA 10 mg kg^−1, i.p. every two days, OXA after nine days), the “effect on mice body weight” value is “no significant effect”. Further, in data set [11] (heart, liver, spleen, lung, kidney, day 13), the “organ tissue damage (H&E staining)” value is on record as “did not cause noticeable damage to organ tissues”. In [4], the “PD-L1 expression (western blot)” value is “did not exhibit this effect”. Besides, in data set [5], the “DC maturation in spleen and tumor tissues” value is listed as “induced DC maturation”; the “macrophage polarization in tumor” value is recorded as “significantly promoted M1‐type macrophage polarization”; the “T lymphocyte infiltration in tumor” value is “did not enhance T lymphocyte infiltration”; the “MDSC infiltration in tumor” value is recorded as “reducing the infiltration”. The “Treg infiltration in tumor (Foxp3)” value in [5] is given as “reducing the infiltration”. Besides, in data set [5] (immunofluorescence), the “Arg-1 expression in tumor tissue” value is recorded as “downregulation” and the “CRT exposure in tumor tissue” value is on record as “did not induce CRT exposure”. In [12], the “suggested minimum effective dose” value is 10 mg/kg. In addition, in data set [1], the half-inhibitory concentration (IC50) is 37.6 ± 1.73 µM. The “tumor growth vs model group” value in [7] is recorded as “did not show an obvious effect on tumor growth”. The compound also came in with an IC50 in data set [2] (Homo sapiens, HepG2) of 39.5 ± 4.68 µM. The half-inhibitory concentration (IC50) in data set [3] amounted to 43.4 ± 4.47 µM. Besides, the “MAPK pathway activation (phosphorylation of MEK1/2 and ERK1/2) in tumor tissue” value in data set [9] is given as “significantly inhibited”.
The term half-life denotes the time in which the quantity being followed falls by half. The term fraction remaining denotes what is left of the initial amount, in per cent. Read a high fraction remaining as greater stability. In the case of `CC(C)[N+](C)(CCOC(=O)C1c2ccccc2Oc2ccccc21)C(C)C` [Propantheline bromide], in data set [13], the “-k” value is reported as 0.0216, the half-life amounted to 32.1 min, the fraction remaining at 0 h turned out to be 100% and the fraction remaining at 5 min turned out to be 88.5%. In data set [13], this compound yielded a fraction remaining at 0.25 h of 66%, a share remaining at 0.5 h of 47.5%, a share remaining at 1 h of 21.8% and a fraction remaining at 2 h of 7.63%.
Turning to `CC(=O)OC[C@H]1O[C@@H]([S-])[C@H](OC(C)=O)[C@@H](OC(C)=O)[C@@H]1OC(C)=O.CCP(CC)CC.[Au+]` [AF, auranofin, reference compound], in [14], the “stability by 1H NMR” value is on record as “remained stable”. Moreover, the “time after which 1H NMR spectra began to change / showed new peaks” value in data set [14] (5 mM complex, DMSO-d6/D2O 9:1 containing GSH (5 mM)) is given as 2 h. Further, the “Akt phosphorylation (western blot)” value in data set [10] is given as “inhibited Akt phosphorylation”. For the same compound, in data set [4], the “PD-L1 expression (western blot)” value is listed as “upregulation”. Besides, in data set [6], the “ERK1/2 phosphorylation (western blot, Figure S49)” value is reported as “significantly enhancing ERK1/2 phosphorylation”. Further, the “HIF-1α expression (western blot)” value in data set [15] is on record as “promoted”. The compound further displayed an IC50 in data set [2] of 3.54 ± 0.34 µM.
